Experimental data: paper PMC6152131, “Pharmacokinetic Study of Biotransformation Products from an Anxiolytic Fraction of Tilia americana” (Molecules : A Journal of Synthetic Chemistry and Natural …, 2017)

Experiments:
[1] = Plasma concentration after a single oral dose of the anxiolytic fraction (HPLC); assay type: in vivo, ICR mice; details: oral 200 mg/kg anxiolytic fraction, immediately after administration and over 24 h
Experimental: Eleven groups of ten animals each were randomly formed. All animals were orally administered with 200 mg/kg of the active fraction. Animals were anaesthetized with ether, and blood samples were obtained from the retroorbital sinus with a heparinized capillary, each group was examined at different times (0, 5, 10, 15, 30, 60, 120, 240, 480, 720, and 1440 min) after the active fraction was administered. […] Then the plasma samples were frozen and lyophilized. The dry plasma was subsequently used to extract and measure the concentration of the flavonoids and biotransformation products.
(§1) Plasma dried pulverized samples were extracted with methanol (HPLC grade, Merck). The extracts were filtered with Teflon membrane dimensions 0.45 μm by 13 mm (Millex®-LCR); 20 μL of each filtered sample was injected into the HPLC equipment. The measurements were performed in a (Waters corporation, Milford, CT, USA) 2695 HPLC with a diode array detector (Waters 2996) and processed with the Empower Pro 1.0 software. A Chromolith Performance® RP-18e 100 × 4.6 mm (Merck KGaA, Darmstadt, Germany) was used. The mobile phase consisted of a mixture of acetonitrile and water with the proportion 55:45 and a flow rate of 1 mL/min. The concentrations of the flavonoids and the biotransformation products were obtained by comparison with a pre-built calibration curve at λ = 220 nm.
To evaluate the suitability of the assay for the pharmacokinetic studies, 200 mg/kg of the active fraction was orally administered to the animals. Ten animals were used in each group at different times (0, 5, 10, 15, 30, 60, 120, 240, 480, 720, and 1440 min). Pharmacokinetic calculations were performed using the observed data. All data was subsequently processed using the PKSolver add-in program for Microsoft Excel written in Visual Basic for Applications. All values obtained were expressed in mean ± standard deviation.

[2] = Stability of flavonoids and biotransformation products in mouse plasma under different handling conditions; assay type: in vitro ADME, mice; details: for Accuracy Bias 0 h / Observed Conc. 0 h / Accuracy Bias 8 h / Observed Conc. 8 h / Accuracy Bias 24 h / Observed Conc. 24 h: room temperature (25 °C); for Observed Conc. 0 h / Observed Conc. 8 h / Observed Conc. 24 h / Observed Conc. Autosampler (4 °C; 8 h) / Observed Conc. Long-term (−70 °C; 1 month): n = 6; for Accuracy Bias Autosampler (4 °C; 8 h) / Accuracy Bias Long-term (−70°C; 1 month) / Observed Conc. Autosampler (4 °C; 8 h) / Observed Conc. Long-term (−70 °C; 1 month): storage stability
Experimental: as §1
[…] The investigation enclosed here expected manipulation conditions during all the sample storage and process periods, which included the stability data from the freeze/thaw, bench-top, autosampler, and long–term stability tests.
For all stability studies, fresh QC samples were evaluated by using a freshly prepared standard curve for the measurements. The concentrations obtained from all the stability studies were compared with the fresh QC samples, and the percentage concentration deviation was calculated. The analytes were considered stable in the mouse plasma when the concentration difference between the freshly prepared samples and the stability samples was less than 15%.

[3] = system: intestinal epithelial cells; set-up: method as in PMID 25761590; details: compared with the aglycone kaempherol; cited from earlier work
[4] = high nominal conc. (rutin 7.00; quercetin glucoside, quercitrin, tiliroside 44.37; kaempferol 4.50; m-HPAA, p-HPAA, DOPAC 31.25 µg/mL)
[5] = low nominal conc. (rutin 1.75; quercetin glucoside, quercitrin, tiliroside 11.02; kaempferol 1.12; m-HPAA, p-HPAA, DOPAC 1.95 µg/mL)
[6] = medium nominal conc. (rutin 3.50; quercetin glucoside, quercitrin, tiliroside 22.18; kaempferol 2.24; m-HPAA, p-HPAA, DOPAC 7.81 µg/mL)
[7] = high nominal conc. (7.00; 44.37; 4.50; 31.25 µg/mL)
[8] = low nominal conc. (1.75; 11.02; 1.12; 1.95 µg/mL)
[9] = medium nominal conc. (3.50; 22.18; 2.24; 7.81 µg/mL)

flavonoids found in the plasma after oral administration [1] | Accuracy Bias 0 h ([2]; high nominal conc.) [%] | Observed Conc. 0 h [2, 4] [µg/mL] | Accuracy Bias 0 h ([2]; low nominal conc.) [%] | Observed Conc. 0 h [2, 5] [µg/mL] | Accuracy Bias 0 h ([2]; medium nominal conc.) [%] | Observed Conc. 0 h [2, 6] [µg/mL] | Accuracy Bias 8 h ([2]; high nominal conc.) [%] | Observed Conc. 8 h [2, 7] [µg/mL] | Accuracy Bias 8 h ([2]; low nominal conc.) [%] | Observed Conc. 8 h [2, 8] [µg/mL] | Accuracy Bias 8 h ([2]; medium nominal conc.) [%] | Observed Conc. 8 h [2, 9] [µg/mL] | Accuracy Bias 24 h ([2]; high nominal conc.) [%] | Accuracy Bias 24 h ([2]; low nominal conc.) [%] | Observed Conc. 24 h [2, 8] [µg/mL] | Accuracy Bias 24 h ([2]; medium nominal conc.) [%] | Observed Conc. 24 h [2, 9] [µg/mL] | Accuracy Bias Autosampler (4 °C; 8 h) ([2]; high nominal conc.) [%] | Observed Conc. Autosampler (4 °C; 8 h) [2, 7] [µg/mL] | SMILES | further results
not found | −4.64 | 4.45 ± 0.41 | −3.29 | 1.16 ± 0.099 | 0.53 | 2.24 ± 0.20 | −1.74 | 4.32 ± 0.21 | −7.28 | 1.21 ± 0.83 | 4.60 | 2.15 ± 0.19 | 1.77 | −2.28 | 1.15 ± 0.098 | −8.12 | 2.42 ± 0.22 | 1.24 | 4.19 ± 0.37 | O=c1c(O)c(-c2ccc(O)cc2)oc2cc(O)cc(O)c12 [Kaempferol, kaempferol] | Accuracy Bias Long-term (−70°C; 1 month) ([2]; high nominal conc.): −2.47%; Observed Conc. Long-term (−70 °C; 1 month) [2, 7]: 4.35 ± 0.39 µg/mL; Accuracy Bias Autosampler (4 °C; 8 h) ([2]; low nominal conc.): −7.77%; Accuracy Bias Long-term (−70°C; 1 month) ([2]; low nominal conc.): −2.77%; Observed Conc. Autosampler (4 °C; 8 h) [2, 8]: 1.21 ± 0.07 µg/mL; Observed Conc. Long-term (−70 °C; 1 month) [2, 8]: 1.15 ± 0.10 µg/mL; Accuracy Bias Autosampler (4 °C; 8 h) ([2]; medium nominal conc.): 0.50%; Accuracy Bias Long-term (−70°C; 1 month) ([2]; medium nominal conc.): 4.13%; Observed Conc. Autosampler (4 °C; 8 h) [2, 9]: 2.24 ± 0.20 µg/mL; Observed Conc. Long-term (−70 °C; 1 month) [2, 9]: 2.15 ± 0.19 µg/mL
not found | 2.86 | 43.10 ± 2.20 | −1.24 | 11.16 ± 0.27 | 5.94 | 20.86 ± 1.35 | 4.28 | 42.48 ± 1.06 | 1.62 | 10.84 ± 0.67 | 6.02 | 20.84 ± 1.24 | 6.76 | −2.98 | 11.35 ± 0.61 | 7.83 | 20.44 ± 1.65 | −1.82 | 43.30 ± 2.02 | O=c1c(O[C@@H]2O[C@H](CO)[C@@H](O)[C@H](O)[C@H]2O)c(-c2ccc(O)c(O)c2)oc2cc(O)cc(O)c12 [Quercetin glucoside, quercetin glucoside] | Observed Conc. 24 h [2, 7]: 41.37 ± 1.17 µg/mL; Accuracy Bias Long-term (−70°C; 1 month) ([2]; high nominal conc.): −3.52%; Observed Conc. Long-term (−70 °C; 1 month) [2, 7]: 41.60 ± 2.26 µg/mL; Accuracy Bias Autosampler (4 °C; 8 h) ([2]; low nominal conc.): 2.40%; Accuracy Bias Long-term (−70°C; 1 month) ([2]; low nominal conc.): 6.22%; Observed Conc. Autosampler (4 °C; 8 h) [2, 8]: 11.22 ± 0.59 µg/mL; Observed Conc. Long-term (−70 °C; 1 month) [2, 8]: 11.41 ± 0.71 µg/mL; Accuracy Bias Autosampler (4 °C; 8 h) ([2]; medium nominal conc.): 5.48%; Accuracy Bias Long-term (−70°C; 1 month) ([2]; medium nominal conc.): 7.26%; Observed Conc. Autosampler (4 °C; 8 h) [2, 9]: 20.96 ± 1.31 µg/mL; Observed Conc. Long-term (−70 °C; 1 month) [2, 9]: 20.57 ± 2.06 µg/mL
not found | 1.35 | 43.77 ± 4.28 | 4.59 | 10.54 ± 0.74 | 3.36 | 21.44 ± 2.13 | −0.64 | 44.65 ± 4.37 | 6.26 | 10.33 ± 0.61 | −2.95 | 22.84 ± 2.57 | 7.03 | 4.48 | 10.53 ± 0.79 | 7.14 | 20.60 ± 2.05 | 3.66 | 42.74 ± 3.40 | O=C(/C=C/c1ccc(O)cc1)OC[C@H]1O[C@@H](Oc2c(-c3ccc(O)cc3)oc3cc(O)cc(O)c3c2=O)[C@H](O)[C@@H](O)[C@@H]1O [Tiliroside, tiliroside] | Observed Conc. 24 h [2, 7]: 41.25 ± 2.04 µg/mL; Accuracy Bias Long-term (−70°C; 1 month) ([2]; high nominal conc.): 0.24%; Observed Conc. Long-term (−70 °C; 1 month) [2, 7]: 44.26 ± 2.49 µg/mL; Accuracy Bias Autosampler (4 °C; 8 h) ([2]; low nominal conc.): 3.97%; Accuracy Bias Long-term (−70°C; 1 month) ([2]; low nominal conc.): 5.54%; Observed Conc. Autosampler (4 °C; 8 h) [2, 8]: 10.58 ± 0.81 µg/mL; Observed Conc. Long-term (−70 °C; 1 month) [2, 8]: 10.40 ± 0.99 µg/mL; Accuracy Bias Autosampler (4 °C; 8 h) ([2]; medium nominal conc.): −3.45%; Accuracy Bias Long-term (−70°C; 1 month) ([2]; medium nominal conc.): 3.42%; Observed Conc. Autosampler (4 °C; 8 h) [2, 9]: 22.94 ± 2.25 µg/mL; Observed Conc. Long-term (−70 °C; 1 month) [2, 9]: 21.41 ± 1.82 µg/mL; permeability to the intestinal epithelial cells [3]: completely impermeable

SMILES | flavonoids found in the plasma after oral administration [1] | Accuracy Bias 0 h ([2]; high nominal conc.) [%] | Observed Conc. 0 h [2, 4] [µg/mL] | Accuracy Bias 0 h ([2]; low nominal conc.) [%] | Observed Conc. 0 h [2, 5] [µg/mL] | Accuracy Bias 0 h ([2]; medium nominal conc.) [%] | Observed Conc. 0 h [2, 6] [µg/mL] | Accuracy Bias 8 h ([2]; high nominal conc.) [%] | Observed Conc. 8 h [2, 7] [µg/mL] | Accuracy Bias 8 h ([2]; low nominal conc.) [%] | Observed Conc. 8 h [2, 8] [µg/mL] | Accuracy Bias 8 h ([2]; medium nominal conc.) [%] | Observed Conc. 8 h [2, 9] [µg/mL] | Accuracy Bias 24 h ([2]; high nominal conc.) [%] | Accuracy Bias 24 h ([2]; low nominal conc.) [%] | Observed Conc. 24 h [2, 8] [µg/mL] | Accuracy Bias 24 h ([2]; medium nominal conc.) [%] | Observed Conc. 24 h [2, 9] [µg/mL] | Accuracy Bias Autosampler (4 °C; 8 h) ([2]; high nominal conc.) [%] | Observed Conc. Autosampler (4 °C; 8 h) [2, 7] [µg/mL] | further results
C[C@@H]1O[C@@H](Oc2c(-c3ccc(O)c(O)c3)oc3cc(O)cc(O)c3c2=O)[C@H](O)[C@H](O)[C@H]1O [Quercitrin, quercitrin] | not found | 0.56 | 44.12 ± 2.82 | −2.26 | 11.27 ± 0.75 | −3.39 | 22.94 ± 1.87 | −1.33 | 44.96 ± 1.84 | −4.83 | 11.56 ± 0.78 | −2.11 | 22.65 ± 1.85 | 1.05 | 0.30 | 10.99 ± 0.72 | −4.15 | 23.11 ± 1.89 | −0.17 | 44.44 ± 4.52 | Observed Conc. 24 h [2, 7]: 43.90 ± 1.61 µg/mL; Observed Conc. Long-term (−70 °C; 1 month) [2, 7]: 44.17 ± 2.95 µg/mL; Accuracy Bias Autosampler (4 °C; 8 h) ([2]; low nominal conc.): −5.47%; Observed Conc. Autosampler (4 °C; 8 h) [2, 8]: 11.62 ± 1.02 µg/mL; Observed Conc. Long-term (−70 °C; 1 month) [2, 8]: 11.64 ± 0.99 µg/mL; Accuracy Bias Autosampler (4 °C; 8 h) ([2]; medium nominal conc.): −2.73%; Observed Conc. Autosampler (4 °C; 8 h) [2, 9]: 22.79 ± 2.26 µg/mL; Observed Conc. Long-term (−70 °C; 1 month) [2, 9]: 22.49 ± 1.66 µg/mL
